The results in this text go back to patent US8063048B2, “Acetylenyl-pyrazolo-pyrimidine derivatives” (Hoffmann-La Roche Inc., priority 2005, dated 2011).

In general, melting point refers to the temperature of the solid-liquid transition. Regarding `Nc1cnc(C#Cc2cnn3c(C(F)(F)F)cc(-c4ccc(C(F)(F)F)cc4)nc23)cn1` [Example 286, 5-[7-Trifluoromethyl-5-(4-trifluoromethyl-phenyl)-pyrazolo[1,5-a]pyrimidin-3-ylethynyl]-pyrazin-2-ylamine], the melting point stood at 200 °C. `COc1ncc(S(=O)(=O)NC(C)(C)CO)cc1C#Cc1cnn2c(C(F)(F)F)cc(-c3ccc(C(F)(F)F)cc3)nc12` [Example 18, 6-Methoxy-5-[7-trifluoromethyl-5-(4-trifluoromethyl-phenyl)-pyrazolo[1,5-a]pyrimidin-3-ylethynyl]-pyridine-3-sulfonic acid (2-hydroxy-1,1-dimethyl-ethyl)-amide] yielded a melting point of 209 to 210 °C. Consider `Cc1cc(-c2ccc(Cl)cc2)nc2c(C#Cc3cnc(N)nc3)cnn12` [Example 316, 5-[5-(4-Chloro-phenyl)-7-methyl-pyrazolo[1,5-a]pyrimidin-3-ylethynyl]-pyrimidin-2-ylamine], for which the melting point is 280 to 282 °C. Then `Nc1ccc(C#Cc2cnc3c(C4CC4)cc(-c4ccc(Cl)cc4)cn23)cn1` [Example 233, 5-[6-(4-Chloro-phenyl)-8-cyclopropyl-imidazo[1,2-a]pyridin-3-ylethynyl]-pyridin-2-ylamine], with 246 °C; and `CC(C)(CO)NS(=O)(=O)c1ccc(C#Cc2cnn3c(C(F)F)cc(-c4cccc(C(F)(F)F)c4)nc23)s1` [Example 170, 5-[7-Difluoromethyl-5-(3-trifluoromethyl-phenyl)-pyrazolo[1,5-a]pyrimidin-3-ylethynyl]-thiophene-2-sulfonic acid (2-hydroxy-1,1-dimethyl-ethyl)-amide], with 168 °C; and `NS(=O)(=O)c1ccc(C#Cc2cnn3c(C(F)(F)F)cc(-c4cccc(C(F)(F)F)c4)nc23)s1` [Example 119, 5-[7-Trifluoromethyl-5-(3-trifluoromethyl-phenyl)-pyrazolo[1,5-a]pyrimidin-3-ylethynyl]-thiophene-2-sulfonic acid amide], with 250 °C. As for `NS(=O)(=O)c1ccc(C#Cc2cnc3c(C4CC4)cc(-c4ccc(C(F)(F)F)cc4)cn23)s1` [Example 224, 5-[8-Cyclopropyl-6-(4-trifluoromethyl-phenyl)-imidazo[1,2-a]pyridin-3-ylethynyl]-thiophene-2-sulfonic acid amide], the figure is 261 °C.

In turn, `COc1ncc(S(=O)(=O)NC(C)(CO)CO)cc1C#Cc1cnn2c(C(F)(F)F)cc(-c3ccc(C(F)(F)F)cc3)nc12` [Example 25, 6-Methoxy-5-[7-trifluoromethyl-5-(4-trifluoromethyl-phenyl)-pyrazolo[1,5-a]pyrimidin-3-ylethynyl]-pyridine-3-sulfonic acid (2-hydroxy-1-hydroxymethyl-1-methyl-ethyl)-amide] registered a melting point of 233 to 235 °C. As for `Fc1ccc(C#Cc2cnn3c(C(F)(F)F)cc(-c4ccc(C(F)(F)F)cc4)nc23)cn1` [Example 149, 3-(6-Fluoro-pyridin-3-ylethynyl)-7-trifluoromethyl-5-(4-trifluoromethyl-phenyl)-pyrazolo[1,5-a]pyrimidine], the figure is 213 to 216 °C. As for `CS(=O)(=O)c1cccc(C#Cc2cnn3c(C(F)(F)F)cc(-c4ccc(C(F)(F)F)cc4)nc23)c1` [Example 40, 3-(3-Methanesulfonyl-phenylethynyl)-7-trifluoromethyl-5-(4-trifluoromethyl-phenyl)-pyrazolo[1,5-a]pyrimidine], the figure is 214 °C. Then `CN(C)CCNS(=O)(=O)c1ccc(C#Cc2cnn3c(C(F)(F)F)cc(-c4ccc(C(F)(F)F)cc4)nc23)s1` [Example 159, 5-[7-Trifluoromethyl-5-(4-trifluoromethyl-phenyl)-pyrazolo[1,5-a]pyrimidin-3-ylethynyl]-thiophene-2-sulfonic acid (2-dimethylamino-ethyl)-amide], with 178 °C.

As for `NS(=O)(=O)c1cncc(C#Cc2cnn3c(C(F)(F)F)cc(-c4ccc(C(F)(F)F)cc4)nc23)c1` [Example 5, 5-[7-Trifluoromethyl-5-(4-trifluoromethyl-phenyl)-pyrazolo[1,5-a]pyrimidin-3-ylethynyl]-pyridine-3-sulfonic acid amide], the melting point was 239 to 240 °C. As for `NS(=O)(=O)c1ccc(C#Cc2cnn3c(C4CC4)cc(-c4ccc(C(F)(F)F)cc4)nc23)s1` [Example 83, 5-[7-Cyclopropyl-5-(4-trifluoromethyl-phenyl)-pyrazolo[1,5-a]pyrimidin-3-ylethynyl]-thiophene-2-sulfonic acid amide], the figure is 231 to 233 °C; as for `Nc1ccc(C#Cc2cnc3c(F)cc(-c4ccc(Cl)cc4)cn23)cn1` [Example 241, 5-[6-(4-Chloro-phenyl)-8-fluoro-imidazo[1,2-a]pyridin-3-ylethynyl]-pyridin-2-ylamine], 259 °C; as for `NS(=O)(=O)c1cncc(C#Cc2cnn3ccc(-c4ccc(Cl)cc4)nc23)c1` [Example 73, 5-[5-(4-Chloro-phenyl)-pyrazolo[1,5-a]pyrimidin-3-ylethynyl]-pyridine-3-sulfonic acid amide], 248 to 249 °C. Then `Nc1ccc(C#Cc2cnn3c(C4CC4)cc(-c4ccc(C(F)(F)F)cc4)nc23)cn1` [Example 293, 5-[7-Cyclopropyl-5-(4-trifluoromethyl-phenyl)-pyrazolo[1,5-a]pyrimidin-3-ylethynyl]-pyridin-2-ylamine], with 228 to 231 °C; and `CC(C)(C)c1cc(-c2ccc(Cl)cc2)nc2c(C#Cc3ccc(S(N)(=O)=O)s3)cnn12` [Example 307, 5-[7-tert.-Butyl-5-(4-chloro-phenyl)-pyrazolo[1,5-a]pyrimidin-3-ylethynyl]-thiophene-2-sulfonic acid amide], with 253 to 255 °C. Then `Nc1ncc(C#Cc2cnc3ccc(-c4ccc(C(F)(F)F)cc4)cn23)cn1` [Example 238, 5-[6-(4-Trifluoromethyl-phenyl)-imidazo[1,2-a]pyridin-3-ylethynyl]-pyrimidin-2-ylamine], with 244 to 246 °C; and `CC(C)(O)c1cc(-c2ccc(Cl)cc2)nc2c(C#Cc3ccc(S(N)(=O)=O)cc3)cnn12` [Example 153, 4-[5-(4-Chloro-phenyl)-7-(1-hydroxy-1-methyl-ethyl)-pyrazolo[1,5-a]pyrimidin-3-ylethynyl]-benzenesulfonamide], with 267 to 269 °C. Consider `CC(C)(CO)NS(=O)(=O)c1cnc(C#Cc2cnn3c(C(F)(F)F)cc(-c4ccc(C(F)(F)F)cc4)nc23)s1` [Example 23, 2-[7-Trifluoromethyl-5-(4-trifluoromethyl-phenyl)-pyrazolo[1,5-a]pyrimidin-3-ylethynyl]-thiazole-5-sulfonic acid (2-hydroxy-1,1-dimethyl-ethyl)-amide], for which the melting point was 252 to 253 °C. As for `NS(=O)(=O)c1ccc(C#Cc2cnn3c(C(F)(F)F)cc(-c4cccc(C(F)(F)F)c4)nc23)cc1` [Example 113, 4-[7-Trifluoromethyl-5-(3-trifluoromethyl-phenyl)-pyrazolo[1,5-a]pyrimidin-3-ylethynyl]-benzenesulfonamide], the figure is 264 °C. Then `CC(C)(C)OC(=O)NCCNS(=O)(=O)c1cc(C#Cc2cnn3c(C(F)F)cc(-c4ccc(C(F)(F)F)cc4)nc23)c(F)cc1F` [Example 185, (2-{5-[7-Difluoromethyl-5-(4-trifluoromethyl-phenyl)-pyrazolo[1,5-a]pyrimidin-3-ylethynyl]-2,4-difluoro-benzenesulfonylamino}-ethyl)-carbamic acid tert-butyl ester], with 203 to 204 °C (dec.); and `Nc1ccc(C#Cc2cnn3c(CO)cc(-c4ccc(Cl)cc4)nc23)cn1` [Example 298, [3-(6-Amino-pyridin-3-ylethynyl)-5-(4-chloro-phenyl)-pyrazolo[1,5-a]pyrimidin-7-yl]-methanol], with 215 to 217 °C; and `Nc1ncc(C#Cc2cnn3c(C(F)(F)F)cc(-c4ccc(C(F)(F)F)cc4)nc23)cc1C(F)(F)F` [Example 222, 3-Trifluoromethyl-5-[7-trifluoromethyl-5-(4-trifluoromethyl-phenyl)-pyrazolo[1,5-a]pyrimidin-3-ylethynyl]-pyridin-2-ylamine], with 230 °C.

`NC(=O)c1ccc(C#Cc2cnc3c(C(F)(F)F)cc(-c4ccc(C(F)(F)F)cc4)cn23)cc1` [Example 203, 4-[8-Trifluoromethyl-6-(4-trifluoromethyl-phenyl)-imidazo[1,2-a]pyridin-3-ylethynyl]-benzamide] registered a melting point of 286 °C.

Turning to `N#Cc1cc(C#Cc2cnn3c(C(F)F)cc(-c4ccc(C(F)(F)F)cc4)nc23)cnc1N` [Example 218, 2-Amino-5-[7-difluoromethyl-5-(4-trifluoromethyl-phenyl)-pyrazolo[1,5-a]pyrimidin-3-ylethynyl]-nicotinonitrile], the melting point was found to be 255 °C. As for `CNS(=O)(=O)c1ccc(C#Cc2cnn3c(C(F)(F)F)cc(-c4ccc(C(F)(F)F)cc4)nc23)cc1` [Example 123, N-Methyl-4-[7-trifluoromethyl-5-(4-trifluoromethyl-phenyl)-pyrazolo[1,5-a]pyrimidin-3-ylethynyl]-benzenesulfonamide], the figure is 231 to 233 °C; as for `CC(CO)NS(=O)(=O)c1cncc(C#Cc2cnn3c(C(F)(F)F)cc(-c4ccc(C(F)(F)F)cc4)nc23)c1` (centres unmarked) [Example 28, 5-[7-Trifluoromethyl-5-(4-trifluoromethyl-phenyl)-pyrazolo[1,5-a]pyrimidin-3-ylethynyl]-pyridine-3-sulfonic acid (2-hydroxy-1-methyl-ethyl)-amide], 225 to 226 °C; as for `CN(C)CCNS(=O)(=O)c1ccc(C#Cc2cnn3c(C(F)(F)F)cc(-c4cccc(C(F)(F)F)c4)nc23)s1` [Example 251, 5-[7-Trifluoromethyl-5-(3-trifluoromethyl-phenyl)-pyrazolo[1,5-a]pyrimidin-3-ylethynyl]-thiophene-2-sulfonic acid (2-dimethylamino-ethyl)-amide], 197 °C.
